Laboratory results from patent publication US10533228B2, “3.beta-hydroxysteroid dehydrogenase in steroid dependent disease” (THE CLEVELAND CLINIC FOUNDATION, priority 2013, dated 2020).

Columns and labels:
[1] = system: PSA and TMPRSS2 expression; experiment: AR-regulated gene expression by qPCR in LAPC4; type: cell-based, human; details: LAPC4, qPCR normalized to RPLP0 and vehicle
Protocol: (§1) Gene expression. To accurately quantitate each gene transcript, qPCR was performed as previously described. Chang et al., 2011. Briefly, the iTaq SYBR Green Supermix with ROX kit (Bio-Rad, Hercules, Calif.) was applied for the thermocycling reaction in an ABI-7500 Real-Time PCR machine (Applied Biosystems, Foster City, Calif.). Total RNA (1 μg) collected by RNeasy kit (QIAGEN) was used in a RT reaction with the iScript cDNA synthesis kit (Bio-Rad). The qPCR analysis was carried out in triplicate with the following primer sets: HSD3B1 (Forward: 5′-[…]-3′ (SEQ ID NO: 11); Reverse: 5′-[…]-3′ (SEQ ID NO: 12)), PSA (Forward: 5′-[…]-3′ (SEQ ID NO: 13); Reverse: 5′-[…]-3′ (SEQ ID NO: 14)), TMPRSS2 (Forward: 5′-[…]-3′ (SEQ ID NO: 15); Reverse: 5′-[…]-3′ (SEQ ID NO: 16)), the housekeeping gene large ribosomal protein P0 (RPLP0) (Forward: 5′-CGAGGGCACCTGGAAAAC-3′ (SEQ ID NO: 17); Reverse: 5′-CACATTCCCCCGGATATGA-3′ (SEQ ID NO: 18)) and GAPDH (Forward: 5′-[…]-3′ (SEQ ID NO: 19); Reverse: 5′-[…]-3′ (SEQ ID NO: 20)). Each mRNA transcript was quantitated by normalizing the sample values to RPLP0 or GAPDH and to non-silencing control cells (for knockdown) or to vehicle treated cells (for steroid treated cells). All gene expression studies were repeated in independent experiments.

3βHSD1(367N) = target: T1, 3βHSD1(367N) (Homo sapiens, UniProt P14060, T367N); experiment: Enzyme kinetics of DHEA metabolism, recombinant enzyme in yeast microsomes; type: biochemical; details: Michaelis-Menten plot
T1 construct: made in house; host or cells: Saccharomyces cerevisiae W303B (microsomes)
T1 sequence (P14060 1-373 T367N): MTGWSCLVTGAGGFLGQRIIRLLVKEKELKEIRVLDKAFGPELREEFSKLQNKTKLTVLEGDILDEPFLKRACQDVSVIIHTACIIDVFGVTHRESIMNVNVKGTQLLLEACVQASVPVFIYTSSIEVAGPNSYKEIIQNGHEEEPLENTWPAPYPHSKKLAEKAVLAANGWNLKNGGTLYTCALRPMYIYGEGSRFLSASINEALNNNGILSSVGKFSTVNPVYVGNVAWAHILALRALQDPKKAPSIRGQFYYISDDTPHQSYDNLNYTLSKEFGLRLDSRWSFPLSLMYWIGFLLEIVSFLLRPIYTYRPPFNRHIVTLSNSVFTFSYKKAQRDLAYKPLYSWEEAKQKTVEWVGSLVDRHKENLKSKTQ
Protocol: (§2) Recombinant human 3βHSD1 was expressed in S cerevisciae strain W303B using yeast vector V10-3βHSD1 for wild-type and 367T proteins, and microsomes were prepared as described. Li et al., 2012. Incubations containing [^3H]-DHEA (0.5-40 μM, 100,000 cpm) and 25 μg microsomal protein in 0.25 ml of 50 mM potassium phosphate (pH 7.4) were pre-incubated at 37° C. for 1 min before initiating the reaction with NAD (0.1 mM). After 20 min at 37° C., the steroids were extracted with 1 ml dichloromethane, concentrated, and resolved on an Agilent 1260 HPLC equipped with a Kinetex 2.1×100 mm, 2.6 μm C18 reverse-phase column (Phenomenex, Torrance, Calif.) using methanol-water gradients at 0.4 ml/min. The column effluent was analyzed with a β-RAM4 (LabLogic) in-line scintillation counter and Bio-SafeII cocktail (Research Products International). Means of triplicate determinations were plotted as v versus [S], and kinetic constants Km and Vmax were obtained by fitting the data to the Michaelis-Menten equation using Origin version 7.5.

3βHSD1(367T) = target: T2, 3βHSD1(367T) (Homo sapiens, UniProt P14060); experiment: as above; type: biochemical; details: Michaelis-Menten plot
T2 construct: made in house; host or cells: Saccharomyces cerevisiae W303B (microsomes)
T2 sequence (P14060 2-373): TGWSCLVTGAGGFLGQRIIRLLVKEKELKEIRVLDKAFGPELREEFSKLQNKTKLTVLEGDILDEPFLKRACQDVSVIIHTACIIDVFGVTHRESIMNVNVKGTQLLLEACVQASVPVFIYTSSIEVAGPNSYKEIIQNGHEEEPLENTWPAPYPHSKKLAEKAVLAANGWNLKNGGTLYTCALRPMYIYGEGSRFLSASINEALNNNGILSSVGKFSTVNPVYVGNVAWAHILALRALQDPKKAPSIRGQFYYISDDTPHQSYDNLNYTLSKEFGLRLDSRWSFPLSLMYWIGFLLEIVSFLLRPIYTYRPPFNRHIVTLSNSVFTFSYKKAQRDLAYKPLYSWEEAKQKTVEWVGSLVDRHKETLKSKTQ
Protocol: as §2

LNCaP cells = experiment: Steroid metabolism (flux from [3H]-DHEA to AD), HPLC; type: cell-based, human; details: 100 nM, after 48 hours
Protocol: (§3) Steroid metabolism experiments were performed 12 hours after seeding cells by treatment with 1 mL serum-free medium containing [^3H]-labeled DHEA (100 nM, 300,000-600,000 cpm; PerkinElmer). Aliquots of medium were collected for up to 48 hours, treated with β-glucuronidase (1000 units; Sigma-Aldrich) at 65° C. for 4 hours. Deconjugated steroids were extracted, evaporated under nitrogen stream, dissolved in 50% methanol, injected on a Breeze 1525 system equipped with model 717 plus autoinjector (Waters Corp.) and steroid metabolites were separated on a Luna 150×3 mm, […] C18 reverse-phase column (Phenomenex). The column effluent was mixed with Liquiscint scintillation cocktail (National Diagnostics) and analyzed by a β-RAM model 3 in-line radioactivity detector (IN/US Systems). Steroid metabolism experiments with transient enzyme expression were performed with pCMV5-HSD3B1 (367N and 367T) constructs 24 hours after transfection and 12 hours after treatment with 25 μM cycloheximide (CHX). […]
(§4) Cells (300,000-400,000 cells per well) were plated in 12-well plates coated with poly-L-ornithine. […] The column effluent was mixed with Liquiscint scintillation cocktail (National Diagnostics, Atlanta, Ga.) and analyzed by a β-RAM model 3 in-line radioactivity detector (LabLogic, Brandon, Fla.). […]

LAPC4 cells = experiment: as above; type: cell-based, human; details: LAPC4, 100 nM, after 48 hours
Protocol: as §3, §4

[2] = system: PSA and TMPRSS2 expression; experiment: AR-regulated gene expression by qPCR in LNCaP; type: cell-based, human; details: qPCR normalized to RPLP0 and vehicle
Protocol: as §1

3βHSD = details: cited from earlier work

Compound	PSA and TMPRSS2 expression [1]	Km (3βHSD1(367N))	Km (3βHSD1(367T))	[3H]-DHEA metabolized by 3βHSD enzymatic activity to AD (LNCaP cells)	[3H]-DHEA metabolized by 3βHSD enzymatic activity to AD (LAPC4 cells)	PSA and TMPRSS2 expression [2]	inhibition of 3βHSD (3βHSD)
C[C@]12CC[C@H](O)CC1=CC[C@@H]1[C@@H]2CC[C@]2(C)C(=O)CC[C@@H]12 [DHEA, dehydroepiandrosterone]	absence of DHEA concentration-dependent increases in AR-regulated PSA and TMPRSS2	32 µM	7 µM	> 90%	approximately 10%	induces PSA and TMPRSS2 expression in a concentration-dependent manner	
CC(=O)O[C@H]1CC[C@@]2(C)C(=CC[C@@H]3[C@@H]2CC[C@]2(C)C(c4cccnc4)=CC[C@@H]32)C1 [abiraterone, abiraterone acetate]							weakly inhibits
